Reference: patent US9260425B2 (Genetech, Inc., priority 2011, dated 2016)
pKi: −log10 of the molar value.

target: Pim-1 (Homo sapiens (Human), UniProt P11309); experiment: Pim kinase binding activity assay (Example 901), PIM-1 enzyme, Caliper microfluidic peptide phosphorylation; format: biochemical; details: 20 pM PIM-1, 10 μM ATP, 1 μM FAM-peptide, 90 minutes at room temperature
Procedure, shortened: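 PIM-1 at 20 pM phosphorylated 1 μM FAM-labelled Pim peptide with 10 μM ATP in HEPES pH 7.2, MgCl2, Tween 20 and DTT for 90 min at room temperature. EDTA stopped the reaction, and product and substrate were resolved by microfluidic electrophoresis (ex 488/em 530 nm). Ki was derived from substrate conversion.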

Pim-1, sequence (P11309 whole entry): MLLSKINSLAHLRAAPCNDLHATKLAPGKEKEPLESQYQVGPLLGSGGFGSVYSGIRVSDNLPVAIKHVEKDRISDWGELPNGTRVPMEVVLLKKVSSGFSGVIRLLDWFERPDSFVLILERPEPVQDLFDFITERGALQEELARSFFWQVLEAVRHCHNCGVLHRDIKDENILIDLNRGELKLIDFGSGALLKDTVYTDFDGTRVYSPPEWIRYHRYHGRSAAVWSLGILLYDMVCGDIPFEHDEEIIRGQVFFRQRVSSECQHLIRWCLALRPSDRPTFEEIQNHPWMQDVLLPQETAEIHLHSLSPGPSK

Question: How did the pKi turn out when `c1cc(-c2n[nH]c3cnc(-n4ccnc4)cc23)nc(N2CCNCC2)c1` [Example 368, 5-(1H-imidazol-1-yl)-3-(6-(piperazin-1-yl)pyridin-2-yl)-1H-pyrazolo[3,4-c]pyridine] was run?
Answer: 8.74

Question: `c1cncc(-c2cc3c(-c4ccncc4)n[nH]c3cn2)c1` [Example 194, 5-(pyridin-3-yl)-3-(pyridin-4-yl)-1H-pyrazolo[3,4-c]pyridine] was tested. Which pKi did it give?
Answer: 8.06

Question: With `Cc1n[nH]c2cnc(-c3cn[nH]c3)cc12` [Example 102, 3-methyl-5-(1H-pyrazol-4-yl)-1H-pyrazolo[3,4-c]pyridine] as the compound, how does the pKi read?
Answer: 6.52

Question: How did the pKi turn out when `c1ccc(-c2n[nH]c3cnc(-n4ccnc4)cc23)cc1` [Example 146, 5-(1H-imidazol-1-yl)-3-phenyl-1H-pyrazolo[3,4-c]pyridine] was run?
Answer: 7.57

Question: With `N[C@@H]1CN(c2cccc(-c3n[nH]c4cnc(-c5cccnc5)cc34)n2)CC[C@@H]1F` (relative stereo) [Example 452, cis-4-fluoro-1-(6-(5-(pyridin-3-yl)-1H-pyrazolo[3,4-c]pyridin-3-yl)pyridin-2-yl)piperidin-3-amine] as the compound, how does the pKi read?
Answer: 10.34

Question: How did the pKi turn out when `c1cncc(-c2cc3c(-c4cccc(N5CCNCC5)n4)n[nH]c3cn2)c1` [Example 162, 3-(6-(piperazin-1-yl)pyridin-2-yl)-5-(pyridin-3-yl)-1H-pyrazolo[3,4-c]pyridine] was run?
Answer: 10.43

Question: `CCn1cc(-c2cc3c(-c4ccc(C5CC5)c(N5CCC[C@H](N)C5)n4)n[nH]c3cn2)cn1` [Example 506, (S)-1-(3-cyclopropyl-6-(5-(1-ethyl-1H-pyrazol-4-yl)-1H-pyrazolo[3,4-c]pyridin-3-yl)pyridin-2-yl)piperidin-3-amine] was tested. Which pKi did it give?
Answer: 10.68

Question: How did the pKi turn out when `N[C@H]1CCCN(c2nc(-c3n[nH]c4cnc(-c5cccnc5)cc34)ccc2Br)CC1` [Example 312, (S)-1-(3-bromo-6-(5-(pyridin-3-yl)-1H-pyrazolo[3,4-c]pyridin-3-yl)pyridin-2-yl)azepan-4-amine] was run?
Answer: 10.54

Question: With `NCC[C@@H]1CCCN(c2cccc(-c3n[nH]c4cnc(-c5cccnc5)cc34)n2)C1` [Example 242, (S)-2-(1-(6-(5-(pyridin-3-yl)-1H-pyrazolo[3,4-c]pyridin-3-yl)pyridin-2-yl)piperidin-3-yl)ethanamine] as the compound, how does the pKi read?
Answer: 10.52

Question: With `Cn1cc(-c2cc3c(-c4cccc(N5C[C@H](N)C[C@@H](F)C5)n4)n[nH]c3cn2)cn1` [Example 517, (3R,5R)-5-fluoro-1-(6-(5-(1-methyl-1H-pyrazol-4-yl)-1H-pyrazolo[3,4-c]pyridin-3-yl)pyridin-2-yl)piperidin-3-amine] as the compound, how does the pKi read?
Answer: 8.93

Question: `NC[C@@H]1CCCN(c2ccncc2-c2cc3c(-c4ccccc4F)n[nH]c3cn2)C1` [Example 140, (S)-(1-(3-(3-(2-fluorophenyl)-1H-pyrazolo[3,4-c]pyridin-5-yl)pyridin-4-yl)piperidin-3-yl)methanamine] was tested. Which pKi did it give?
Answer: 6.39

Question: How did the pKi turn out when `N[C@H]1CCCC(Nc2cccc(-c3n[nH]c4cnc(-c5cccnc5)cc34)n2)C1` (stereo in doubt) [Example 245, (1S,3S)—N1-(6-(5-(pyridin-3-yl)-1H-pyrazolo[3,4-c]pyridin-3-yl)pyridin-2-yl)cyclohexane-1,3-diamine] was run?
Answer: 11.10

Question: With `Cn1cc(-c2cc3c(-c4cccc(N5CCC[C@@](C)(O)C5)n4)n[nH]c3cn2)cn1` [Example 424, (R)-3-methyl-1-(6-(5-(1-methyl-1H-pyrazol-4-yl)-1H-pyrazolo[3,4-c]pyridin-3-yl)pyridin-2-yl)piperidin-3-ol] as the compound, how does the pKi read?
Answer: 10.14

Question: `Fc1ccc(-c2cc3c(-c4cccc(N5CCNCC5)n4)n[nH]c3cn2)cn1` [Example 378, 5-(6-fluoropyridin-3-yl)-3-(6-(piperazin-1-yl)pyridin-2-yl)-1H-pyrazolo[3,4-c]pyridine] was tested. Which pKi did it give?
Answer: 9.10

Question: `Cc1ccc(-c2n[nH]c3cnc(-c4cnn(C)c4)cc23)nc1N1CC(N2CCS(=O)(=O)CC2)C1` [Example 413, 4-(1-(3-methyl-6-(5-(1-methyl-1H-pyrazol-4-yl)-1H-pyrazolo[3,4-c]pyridin-3-yl)pyridin-2-yl)azetidin-3-yl)-1,1-dioxo thiomorpholine] was tested. Which pKi did it give?
Answer: 8.99

Question: How did the pKi turn out when `Fc1ccccc1-c1n[nH]c2cnc(-c3cnccc3OC3CCNCC3)cc12` [Example 195, 3-(2-fluorophenyl)-5-(4-(piperidin-4-yloxy)pyridin-3-yl)-1H-pyrazolo[3,4-c]pyridine] was run?
Answer: 9.25

Question: How did the pKi turn out when `O[C@@H]1CCN(c2nc(-c3n[nH]c4cnc(-c5cccnc5)cc34)ccc2Br)C1` [Example 293, (R)-1-(3-bromo-6-(5-(pyridin-3-yl)-1H-pyrazolo[3,4-c]pyridin-3-yl)pyridin-2-yl)pyrrolidin-3-ol] was run?
Answer: 9.39

Question: `CCn1cc(-c2cc3c(-c4ccc(Br)c(N5CCNCC5)n4)n[nH]c3cn2)cn1` [Example 404, 3-(5-bromo-6-(piperazin-1-yl)pyridin-2-yl)-5-(1-ethyl-1H-pyrazol-4-yl)-1H-pyrazolo[3,4-c]pyridine] was tested. Which pKi did it give?
Answer: 10.05

Question: How did the pKi turn out when `c1cncc(-c2cc3c(-c4cnn(CC5CCNCC5)c4)n[nH]c3cn2)c1` [Example 186, 3-(1-(piperidin-4-ylmethyl)-1H-pyrazol-4-yl)-5-(pyridin-3-yl)-1H-pyrazolo[3,4-c]pyridine] was run?
Answer: 9.14

Question: With `c1cncc(-c2cc3c(CNC4CCNCC4)n[nH]c3cn2)c1` [Example 109, N-((5-(pyridin-3-yl)-1H-pyrazolo[3,4-c]pyridin-3-yl)methyl)piperidin-4-amine] as the compound, how does the pKi read?
Answer: 5.42

Question: How did the pKi turn out when `N[C@H]1CCN(c2ccc(-c3n[nH]c4cnc(-c5cccnc5)cc34)nc2)C1=O` [Example 334, (S)-3-amino-1-(6-(5-(pyridin-3-yl)-1H-pyrazolo[3,4-c]pyridin-3-yl)pyridin-3-yl)pyrrolidin-2-one] was run?
Answer: 8.80

Question: With `CCn1cc(-c2cc3c(-c4cccc(N5CCN[C@@H](C)C5)n4)n[nH]c3cn2)cn1` [Example 396, (S)-5-(1-ethyl-1H-pyrazol-4-yl)-3-(6-(3-methylpiperazin-1-yl)pyridin-2-yl)-1H-pyrazolo[3,4-c]pyridine] as the compound, how does the pKi read?
Answer: 10.09

Question: How did the pKi turn out when `Cc1n[nH]c2cnc(-c3cncnc3)cc12` [Example 115, 3-methyl-5-(pyrimidin-5-yl)-1H-pyrazolo[3,4-c]pyridine] was run?
Answer: 5.46

Question: How did the pKi turn out when `CC(C)(CN)Cn1cc(-c2n[nH]c3cnc(-c4cccnc4)cc23)ccc1=O` [Example 379, 1-(3-amino-2,2-dimethylpropyl)-5-(5-(pyridin-3-yl)-1H-pyrazolo[3,4-c]pyridin-3-yl)pyridin-2(1H)-one] was run?
Answer: 8.89

Question: `c1cncc(-c2cc3c(-c4cncc(NC5CCNCC5)c4)n[nH]c3cn2)c1` [Example 170, N-(piperidin-4-yl)-5-(5-(pyridin-3-yl)-1H-pyrazolo[3,4-c]pyridin-3-yl)pyridin-3-amine] was tested. Which pKi did it give?
Answer: 9.35

Question: How did the pKi turn out when `Fc1cccc(-c2n[nH]c3cnc(-c4cccnc4)cc23)n1` [Example 131, 3-(6-fluoropyridin-2-yl)-5-(pyridin-3-yl)-1H-pyrazolo[3,4-c]pyridine] was run?
Answer: 7.88

Question: `Fc1ccccc1-c1n[nH]c2cnc(-c3cnc[nH]3)cc12` [Example 218, 3-(2-fluorophenyl)-5-(1H-imidazol-5-yl)-1H-pyrazolo[3,4-c]pyridine] was tested. Which pKi did it give?
Answer: 7.51

Question: With `CCn1cc(-c2cc3c(-c4cc(C(C)C)ccn4)n[nH]c3cn2)cn1` [Example 507, 5-(1-ethyl-1H-pyrazol-4-yl)-3-(4-isopropylpyridin-2-yl)-1H-pyrazolo[3,4-c]pyridine] as the compound, how does the pKi read?
Answer: 7.53

Question: How did the pKi turn out when `CC(O)c1cncc(-c2cc3c(-c4cccc(N5CCNCC5)n4)n[nH]c3cn2)c1` (centres unmarked) [Example 483, 1-(5-(3-(6-(piperazin-1-yl)pyridin-2-yl)-1H-pyrazolo[3,4-c]pyridin-5-yl)pyridin-3-yl)ethanol] was run?
Answer: 10.57

Question: With `NC[C@H]1CCN(c2cncc(-c3cc4c(-c5ccccc5F)n[nH]c4cn3)c2)C1` [Example 164, (R)-(1-(5-(3-(2-fluorophenyl)-1H-pyrazolo[3,4-c]pyridin-5-yl)pyridin-3-yl)pyrrolidin-3-yl)methanamine] as the compound, how does the pKi read?
Answer: 8.72

Question: With `CCn1cc(-c2cc3c(-c4ccc(C)c(N5CCC[C@H](N)C5)n4)n[nH]c3cn2)cn1` [Example 430, (S)-1-(6-(5-(1-ethyl-1H-pyrazol-4-yl)-1H-pyrazolo[3,4-c]pyridin-3-yl)-3-methylpyridin-2-yl)piperidin-3-amine] as the compound, how does the pKi read?
Answer: 10.57

Question: With `N#Cc1cc2c(-c3cccc(N4CCC[C@H](N)C4)n3)n[nH]c2cn1` [Example 399, (S)-3-(6-(3-aminopiperidin-1-yl)pyridin-2-yl)-1H-pyrazolo[3,4-c]pyridine-5-carbonitrile] as the compound, how does the pKi read?
Answer: 7.65

Question: `N[C@H]1CCC[C@@H](Oc2cccc(-c3n[nH]c4cnc(-c5cccnc5)cc34)n2)C1` [Example 299, (1S,3R)-3-(6-(5-(pyridin-3-yl)-1H-pyrazolo[3,4-c]pyridin-3-yl)pyridin-2-yloxy)cyclohexanamine] was tested. Which pKi did it give?
Answer: 9.18

Question: `NC1CCN(c2cncc(-c3n[nH]c4cnc(-c5cccnc5)cc34)c2)CC1` [Example 158, 1-(5-(5-(pyridin-3-yl)-1H-pyrazolo[3,4-c]pyridin-3-yl)pyridin-3-yl)piperidin-4-amine] was tested. Which pKi did it give?
Answer: 8.68

Question: With `Fc1ccccc1-c1n[nH]c2cnc(-c3cncc(NC4CCNCC4)c3)cc12` [Example 171, 5-(3-(2-fluorophenyl)-1H-pyrazolo[3,4-c]pyridin-5-yl)-N-(piperidin-4-yl)pyridin-3-amine] as the compound, how does the pKi read?
Answer: 8.62

Question: With `Cn1cc(-c2cc3c(-c4cccc(N5CCCCC(N)C5)n4)n[nH]c3cn2)cn1` (centres unmarked) [Example 226, 1-(6-(5-(1-methyl-1H-pyrazol-4-yl)-1H-pyrazolo[3,4-c]pyridin-3-yl)pyridin-2-yl)azepan-3-amine] as the compound, how does the pKi read?
Answer: 10.29

Question: `CCn1cc(-c2cc3c(-c4cccc(N5CCC[C@H](N)CC5)n4)n[nH]c3cn2)cn1` [Example 481, (S)-1-(6-(5-(1-ethyl-1H-pyrazol-4-yl)-1H-pyrazolo[3,4-c]pyridin-3-yl)pyridin-2-yl)azepan-4-amine] was tested. Which pKi did it give?
Answer: 10.47

Question: How did the pKi turn out when `Cc1ccc(-c2n[nH]c3cnc(-c4cccnc4)cc23)nc1N1CCC(O)CC1` [Example 288, 1-(3-methyl-6-(5-(pyridin-3-yl)-1H-pyrazolo[3,4-c]pyridin-3-yl)pyridin-2-yl)piperidin-4-ol] was run?
Answer: 10.07
